Patent US20180371021A1, “PEPTIDOMIMETIC MACROCYCLES AND USES THEREOF” (Aileron Therapeutics, Inc., priority 2017, published 2018)
Where “and” joins values, the source holds several entries; their conditions need not be identical. Identical values can stand only once. Entries after “also recorded” stand apart in the source; their conditions may differ.

Legend:
[1] = test system: MCF-7.1 human breast carcinoma xenograft; test: MCF-7.1 human breast carcinoma xenograft model, AP1 and palbociclib; type: in vivo, mice; details: AP1 20 mg/kg qwkx4, palbociclib 75 mg/kg qdx22
Protocol: Female athymic nude mice were provided with drinking water with 10 μg/mL with 17 beta estradiol supplementation 3 days prior to cell implantation and for the duration of the study. […] The mice were between 8-12 weeks of age at the beginning of the study. […] The group was not euthanized, and the mice were allowed to recover. […] Animals were monitored individually. […] Responders were followed for a longer period of time. When the endpoint was reached, the animals were euthanized. […] An aqueous phosphate-buffered saline solution or sodium lactate (50 mM, pH 4.0) solution was used as the vehicle.

[2] = test system: MCF-7 cells; test: MCF-7 cell proliferation (WST-1 / CyQUANT), AP1 and CDK4/CDK6 inhibitors; type: cell-based, human; details: sequential treatment, 24 h pre-treatment
Protocol: The WST-1 variant of the MTT assay was used to measure cell viability. WST-1 is a cell-impermeable, sulfonated tetrazolium salt that can be used to examine cell viability without killing the cells. […] All media were supplemented with 10% (v/v) fetal calf serum, 100 units of penicillin, and 100 μg/mL of streptomycin at 37° C. and 5% CO2. Prior to dosing, MCF-7 cells were switched to serum-free medium and grown at 37° C. overnight. One day prior to assaying, the cells were trypsinized, counted, and seeded at pre-determined densities in 96-well plates as follows: MCF-7, 5000 cells/well/200 μL; MOLT-3, 30,000 cells/well/200 μL.
The concentration of ribociclib was kept constant.
The concentration of abemaciclib was kept constant.
Various MCF-7 cell numbers were plated and evaluated 3-7 days after plating to determine the optimal number of cells to be plated and to determine the treatment duration. […] MCF-7 cells were evaluated for viability using the WST-1 assay or the CyQUANT method 3-7 days or 120 h after beginning treatment.
The cells were evaluated for viability using the CyQUANT method after beginning the simultaneous treatments.
The cells were evaluated for viability using a WST-1 assay or MTT assay 3-7 days after beginning the treatments.
The data are expressed as log(CI).

[3] = test system: human CD45 leukemic cells; test: Survival in an in vivo xenotransplantation model; set-up: species or system mice; details: for Long term survival, mice still alive: 130 days post start of treatment
Description: The median survival for group 1 and group 2 was 34 days and 83 days, respectively (p<0.0001).

[4] = test system: advanced solid tumors or lymphomas expressing WT p53; test: Phase 1 dose-escalation trial of AP1: anti-tumor activity (RECIST / IWG); type: in vivo, human
Protocol: Anti-tumor activity was measured using Response Evaluation Criteria in Solid Tumors (RECIST) criteria for patients with solid tumors, and 2015 International Working Group (IWG) criteria for patients with lymphomas. The RECIST and IWG criteria enabled the objective evaluation of whether a tumor had progressed, stabilized, or decreased in size. Anti-tumor effects were also determined through physical examinations or clinically validated blood or serum tumor markers.
Anti-tumor activity was measured using RECIST criteria for patients with solid tumors and the IWG criteria for patients with lymphomas to objectively evaluate whether a tumor progressed, stabilized, or shrunk.
The percent change in tumor volume for each evaluable patient (i.e., having measurable disease by CT or PET-CT scan) is plotted from the highest to lowest value, or low to high response, and each bar of the histogram is colored by the best overall response measured for that patient per RECIST or IWG criteria.

[5] = Phase 1 dose-escalation trial of AP1: pharmacokinetic profile; type: in vivo, human; details: patients, I.V. infusion
Description: Data were collected at different time points after the start of infusion (SOI) and the end of infusion (EOI).

[6] = test system: peripheral T-Cell Lymphoma (PTCL); test: Phase 2a clinical trial with AP1 in peripheral T-cell lymphoma; type: in vivo, human
Protocol: Based on the results of the dose-escalation study and the complete response observed in a patient with PTCL, a Phase 2a clinical trial was conducted in patients with PTCL.

[7] = test system: MIC-1; test: Phase 1 dose-escalation trial of AP1: plasma MIC-1 biomarker; type: in vivo, human; details: plasma MIC-1 after end of AP1 infusion
Protocol: Depending on the sample type, the PD biomarkers included measures of MDMX, MDM2, p21, p53, apoptosis, macrophage inhibitory cytokine 1, or MIC-1.
In the Phase 1 dose-escalation study, plasma MIC-1 levels were measured at several time points after initial infusion.

[8] = test system: Acute Myeloid Leukemia (AML) or Myelodysplastic Syndrome (MDS), expressing WT p53; test: Clinical study of AP1 alone or with cytarabine in AML or MDS; type: in vivo, human; details: evaluable patients with bone marrow biopsies before and after dosing
[9] = test system: SJSA-1 osteosarcoma xenograft; test: SJSA-1 osteosarcoma xenograft model, AP1 and palbociclib; type: in vivo, mice; details: AP1 20 mg/kg qwkx4, palbociclib 75 mg/kg qdx22
Protocol: The group was not euthanized, and the mice were allowed to recover. […] Animals were monitored individually. […] Responders were followed for a longer period of time. When the endpoint was reached, the animals were euthanized. […] An aqueous phosphate-buffered saline solution or sodium lactate (50 mM, pH 4.0) solution was used as the vehicle.

[10] = test system: A549 xenograft; test: A549 xenograft model, AP1 and palbociclib; type: in vivo, mice
Description: The arrows indicate spontaneous tumor shrinkage in vehicle controls. The arrows with * indicate poor growth of tumors late in the study.

[11] = Phase 1 dose-escalation trial of AP1: safety and tolerability; type: in vivo, human
Description: 71 patients were enrolled in the dose-escalation trial. The trial used a “3+3” dose-escalation design.
Starting with dose level 4, patients who had cancers associated with HPV were excluded from enrollment because HPV is known to destroy WT p53.
FIG. 2 illustrates the dosing regiments (DRs) used in the “3+3” dose escalation trial.
Eight patients experienced dose reductions, including two patients who had been on study treatment for over 1 year, and another patient who had been on study treatment for 11 months. […] Both events were Grade 3 hypotension and were at the 3.1 mg/kg and the 4.4 mg/kg once-weekly dosing levels. […] Five patients discontinued treatment with AP1 due to these events.

[12] = d22, calculated using vehicle median volumes on d0 and d22
[13] = three consecutive measurements > 150% of d1 volume

## CC(=O)N[C@@H](CC(C)C)C(=O)N[C@H](C(=O)N[C@@H](Cc1ccccc1)C(=O)N[C@]1(C)CCCCCCC=CCCC[C@@](C)(C(=O)N[C@@H](C)C(=O)N[C@@H](C)C(=O)N[C@@H](C)C(=O)N[C@@H](C)C(=O)N[C@@H](C)C(=O)N[C@H](C)C(N)=O)NC(=O)[C@H](CC(C)C)NC(=O)[C@H](CCC(N)=O)NC(=O)[C@H](C)NC(=O)[C@H](Cc2c[nH]c3ccccc23)NC(=O)[C@H](Cc2ccc(O)cc2)NC(=O)[C@H](CCC(=O)O)NC1=O)[C@@H](C)O [AP1]
[1]; D1 (start of dosing), MCF-7.1 xenograft, nude mice
  Median tumor volume (mm^3) D1: 126 mm^3
[1]; D22, MCF-7.1 xenograft, nude mice
  Median tumor volume (mm^3) D22: 473 mm^3
[1]; MCF-7.1 xenograft
  Median time to tumor volume > 500 mm^3: 22 days
  Median time to tumor volume > 1000 mm^3: 35 days
[1]; [12]
  % TGI (±SEM) on d22 (end of dosing): 30 (9) %
[1]; endpoint tumor volume > 1000 mm^3, MCF-7.1 xenograft
  animals have reached endpoint: 10/10 animals
[1]; [13]
  Animals with disease progression: 10/10
[2]
  MCF-7 cell growth: suppressed MCF-7 cell growth with or without treatment with palbociclib
[3]; group 2
  Long term survival, mice still alive: 22%
[3]; group 3
  Long term survival, mice still alive: 60%
[3]; group 2 (group 1: 34 days), p<0.0001
  median survival: 83 days
[3]; vs vehicle
  overall survival: doubled the overall survival
[4]; 57 evaluable patients
  responses with stabilization of tumor size (SDs): 21
  stable diseased patients that exhibited tumor shrinkage: 7
[4]; PTCL patient after six cycles, MCC patient after further treatment
  patient scans of the two CR patients: the lymph node returned to its normal size; also recorded: showed no trace of cancer in the patient
[4]; one patient
  max time a patient received AP1: 613 days
[5]; all dose levels
  maximum drug serum concentrations observed (Cmax): dose-related increase
[5]; higher dose levels
  half-lives: five and seven
[6]; after 2 cycles of treatment
  response of the first patient enrolled in the Phase 2 study in PTCL: partial response
[6]; seven PTCL patients on AP1 therapy, one line per patient (patient 1 from dose escalation)
  Best overall response: ODP
[6]; seven PTCL patients on AP1 therapy, one line per patient (patient 1 from dose escalation), Dose escalation study
  Days on treatment: 487 days
[6]; seven PTCL patients on AP1 therapy, one line per patient (patient 1 from dose escalation), Phase 2a study
  Days on treatment: 32 days and 1 days and 122 days and 134 days and 66 days and 53 days
[7]
  doses achieving a maximal 24 hr MIC-1 increase above baseline: ≥ 2.1 mg/kg
[8]
  patients who demonstrated stabilization of their disease: 3
[9]; D1 (start of dosing), SJSA-1 xenograft, nude mice
  Median tumor volume (mm^3) D1: 117 mm^3
[9]; D22, SJSA-1 xenograft, nude mice
  Median tumor volume (mm^3) D22: 2150 mm^3
[9]; SJSA-1 xenograft
  Median time to tumor volume > 1000 mm^3: 16 days
  Median time to tumor volume > 2000 mm^3: 21 days
[9]; [12]
  % TGI (±SEM) on d22 (end of dosing): 17 (6) %
[9]; [13]
  Animals with disease progression: 10/10
[10]; A549 xenograft, AP1 20 mg/kg qwkx4
  Median time to tumor volume > 500 mm^3: 25 days
[10]; D1 (start of dosing), A549 xenograft, nude mice, AP1 20 mg/kg qwkx4, palbociclib 75 mg/kg qdx22
  Median tumor volume (mm^3) D1: 126 mm^3
[10]; D22, A549 xenograft, nude mice, AP1 20 mg/kg qwkx4, palbociclib 75 mg/kg qdx22
  Median tumor volume (mm^3) D22: 405 mm^3
[10]; d22, calculated using vehicle median volumes on d0 and d22, AP1 20 mg/kg qwkx4, palbociclib 75 mg/kg qdx22
  % TGI (±SEM) on d22 (end of dosing): 42 (7) %
[10]; three consecutive measurements > 150% of d1 volume, AP1 20 mg/kg qwkx4, palbociclib 75 mg/kg qdx22
  Animals with disease progression: 10/10
[10]; tumor volume > 500 mm^3, A549 xenograft, AP1 20 mg/kg qwkx4, palbociclib 75 mg/kg qdx22
  animals have reached endpoint: 8/10 animals
[11]; 3.1 mg/kg once weekly dosing
  dose limiting toxicity (DLT): One dose limiting toxicity (DLT) of Grade 3 fatigue
[11]; […] once weekly
  dose limiting toxicity (DLT): four DLTs (Grade 3 elevated alkaline phosphatase, Grade 3 hypotension, Grade 3 anemia, Grade 4 neutropenia)
[11]; full recovery within a few days
  patients with transient decreases in lymphocytes post-dosing and primarily Grade 1 and 2 abnormalities: approximately 50%
[11]; human, in vivo, iv, dosed once a week by I.V. administration, patients
  MTD: 3.1 mg/kg
[11]; patients, dose escalation trial
  tolerability as considered by the investigators: generally well tolerated
[11]; reported by ≥10% of the patients
  most frequently reported drug-related events: nausea, fatigue, vomiting, decreased appetite, anemia, headache, and constipation
